Assays:
Assay in all cases: relative viability (nuclei count vs DMSO), 5 days (fraction); higher = more cells survive
UMC-11 = test system: UMC-11
In short: (§1)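 Five library-drug doses in √10 steps were combined with a fixed anchor-drug dose, or a single drug was given alone, by pin tool to lung cancer cell lines in 1536-well plates the day after seeding. Nuclei were stained and counted after 5 days. Relative viability is the nuclei count in treated wells over that in vehicle wells, taken as the median of duplicate plates.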

NCI-H358 = test system: NCI-H358
In short: as §1

SK-LU-1 = test system: SK-LU-1
In short: as §1

NCI-H1734 = test system: NCI-H1734
In short: as §1

NCI-H2228 = test system: NCI-H2228
In short: as §1

HCC-78 = test system: HCC-78
In short: as §1

NCI-H1975 = test system: NCI-H1975
In short: as §1

NCI-H727 = test system: NCI-H727
In short: as §1

NCI-H1355 = test system: NCI-H1355
In short: as §1

NCI-H2085 = test system: NCI-H2085
In short: as §1

NCI-H2126 = test system: NCI-H2126
In short: as §1

PC-14 = test system: PC-14
In short: as §1

201T = test system: 201T
In short: as §1

NCI-H647 = test system: NCI-H647
In short: as §1

NCI-H1395 = test system: NCI-H1395
In short: as §1

LU99A = test system: LU99A
In short: as §1

HCC-44 = test system: HCC-44
In short: as §1

LOU-NH91 = test system: LOU-NH91
In short: as §1

HCC-366 = test system: HCC-366
In short: as §1

NCI-H2087 = test system: NCI-H2087
In short: as §1

SK-MES-1 = test system: SK-MES-1
In short: as §1

BEN = test system: BEN
In short: as §1

NCI-H322M = test system: NCI-H322M
In short: as §1

## C=C1C(=O)O[C@@H](CCCCCCCC)[C@@H]1C(=O)O [C-75] + CC(=O)c1c(C)c2cnc(Nc3ccc(N4CCNCC4)cn3)nc2n(C2CCCC2)c1=O [Palbociclib] (partner 0.5 µM)
UMC-11; first compound 0.08 µM
  relative viability: 0.308
UMC-11; first compound 0.253 µM
  relative viability: 0.315
UMC-11; first compound 0.8 µM
  relative viability: 0.321
UMC-11; first compound 2.53 µM
  relative viability: 0.351
UMC-11; first compound 8 µM
  relative viability: 0.268
NCI-H358; first compound 0.08 µM
  relative viability: 0.137
NCI-H358; first compound 0.253 µM
  relative viability: 0.135
NCI-H358; first compound 0.8 µM
  relative viability: 0.147
NCI-H358; first compound 8 µM
  relative viability: 0.135
SK-LU-1; first compound 0.08 µM
  relative viability: 0.384
SK-LU-1; first compound 0.253 µM
  relative viability: 0.43
SK-LU-1; first compound 0.8 µM
  relative viability: 0.429
SK-LU-1; first compound 2.53 µM
  relative viability: 0.387
SK-LU-1; first compound 8 µM
  relative viability: 0.384
NCI-H1734; first compound 0.08 µM
  relative viability: 0.34
NCI-H1734; first compound 0.253 µM
  relative viability: 0.315
NCI-H1734; first compound 0.8 µM
  relative viability: 0.36
NCI-H1734; first compound 2.53 µM
  relative viability: 0.254
NCI-H1734; first compound 8 µM
  relative viability: 0.345
NCI-H2228; first compound 0.08 µM
  relative viability: 0.743
NCI-H2228; first compound 0.253 µM
  relative viability: 0.988
NCI-H2228; first compound 0.8 µM
  relative viability: 0.589
NCI-H2228; first compound 2.53 µM
  relative viability: 0.7
NCI-H2228; first compound 8 µM
  relative viability: 0.681
HCC-78; first compound 0.08 µM
  relative viability: 0.476
HCC-78; first compound 0.253 µM
  relative viability: 0.469
HCC-78; first compound 0.8 µM
  relative viability: 0.514
HCC-78; first compound 2.53 µM
  relative viability: 0.459
HCC-78; first compound 8 µM
  relative viability: 0.461
NCI-H1975; first compound 0.08 µM
  relative viability: 0.67
NCI-H1975; first compound 0.253 µM
  relative viability: 0.433
NCI-H1975; first compound 0.8 µM
  relative viability: 0.525
NCI-H1975; first compound 2.53 µM
  relative viability: 0.484
NCI-H1975; first compound 8 µM
  relative viability: 0.581
NCI-H727; first compound 0.08 µM
  relative viability: 0.755
NCI-H727; first compound 0.253 µM
  relative viability: 0.667
NCI-H727; first compound 0.8 µM
  relative viability: 0.544
NCI-H727; first compound 2.53 µM
  relative viability: 0.614
NCI-H727; first compound 8 µM
  relative viability: 0.624
NCI-H1355; first compound 0.08 µM
  relative viability: 0.402
NCI-H1355; first compound 0.253 µM
  relative viability: 0.388
NCI-H1355; first compound 0.8 µM
  relative viability: 0.428
NCI-H1355; first compound 2.53 µM
  relative viability: 0.364
NCI-H1355; first compound 8 µM
  relative viability: 0.463
NCI-H2085; first compound 0.08 µM
  relative viability: 0.491
NCI-H2085; first compound 0.253 µM
  relative viability: 0.403
NCI-H2085; first compound 0.8 µM
  relative viability: 0.443
NCI-H2085; first compound 2.53 µM
  relative viability: 0.436
NCI-H2085; first compound 8 µM
  relative viability: 0.468
NCI-H2126; first compound 0.08 µM
  relative viability: 0.348
NCI-H2126; first compound 0.253 µM
  relative viability: 0.35
NCI-H2126; first compound 0.8 µM
  relative viability: 0.335
NCI-H2126; first compound 2.53 µM
  relative viability: 0.349
NCI-H2126; first compound 8 µM
  relative viability: 0.339
PC-14; first compound 0.08 µM
  relative viability: 0.54
PC-14; first compound 0.253 µM
  relative viability: 0.546
PC-14; first compound 0.8 µM
  relative viability: 0.504
PC-14; first compound 2.53 µM
  relative viability: 0.453
PC-14; first compound 8 µM
  relative viability: 0.445
201T; first compound 0.08 µM
  relative viability: 0.377
201T; first compound 0.253 µM
  relative viability: 0.374
201T; first compound 0.8 µM
  relative viability: 0.336
201T; first compound 2.53 µM
  relative viability: 0.3
201T; first compound 8 µM
  relative viability: 0.347
NCI-H647; first compound 0.08 µM
  relative viability: 0.312
NCI-H647; first compound 0.253 µM
  relative viability: 0.384
NCI-H647; first compound 0.8 µM
  relative viability: 0.394
NCI-H647; first compound 2.53 µM
  relative viability: 0.239
NCI-H647; first compound 8 µM
  relative viability: 0.236
NCI-H1395; first compound 0.08 µM
  relative viability: 0.586
NCI-H1395; first compound 0.253 µM
  relative viability: 0.584
NCI-H1395; first compound 2.53 µM
  relative viability: 0.588
NCI-H1395; first compound 8 µM
  relative viability: 0.597
LU99A; first compound 0.08 µM
  relative viability: 0.383
LU99A; first compound 0.253 µM
  relative viability: 0.354
LU99A; first compound 0.8 µM
  relative viability: 0.481
LU99A; first compound 2.53 µM
  relative viability: 0.408
LU99A; first compound 8 µM
  relative viability: 0.398
HCC-44; first compound 0.08 µM
  relative viability: 0.971
HCC-44; first compound 0.253 µM
  relative viability: 1.1
HCC-44; first compound 0.8 µM
  relative viability: 1.02
HCC-44; first compound 2.53 µM
  relative viability: 0.956
HCC-44; first compound 8 µM
  relative viability: 0.996
LOU-NH91; first compound 0.08 µM
  relative viability: 0.534
LOU-NH91; first compound 0.253 µM
  relative viability: 0.536
LOU-NH91; first compound 0.8 µM
  relative viability: 0.504
LOU-NH91; first compound 8 µM
  relative viability: 0.464
HCC-366; first compound 0.08 µM
  relative viability: 0.363
HCC-366; first compound 0.253 µM
  relative viability: 0.477
HCC-366; first compound 0.8 µM
  relative viability: 0.33
HCC-366; first compound 2.53 µM
  relative viability: 0.334
HCC-366; first compound 8 µM
  relative viability: 0.343
NCI-H2087; first compound 0.08 µM
  relative viability: 0.239
NCI-H2087; first compound 0.253 µM
  relative viability: 0.232
NCI-H2087; first compound 0.8 µM
  relative viability: 0.239
NCI-H2087; first compound 2.53 µM
  relative viability: 0.209
NCI-H2087; first compound 8 µM
  relative viability: 0.217
SK-MES-1; first compound 0.08 µM
  relative viability: 0.321
SK-MES-1; first compound 0.253 µM
  relative viability: 0.349
SK-MES-1; first compound 0.8 µM
  relative viability: 0.309
SK-MES-1; first compound 2.53 µM
  relative viability: 0.264
SK-MES-1; first compound 8 µM
  relative viability: 0.292
BEN; first compound 0.08 µM
  relative viability: 0.509
BEN; first compound 0.253 µM
  relative viability: 0.483
BEN; first compound 0.8 µM
  relative viability: 0.46
BEN; first compound 2.53 µM
  relative viability: 0.375
BEN; first compound 8 µM
  relative viability: 0.452
NCI-H322M; first compound 0.08 µM
  relative viability: 0.481
NCI-H322M; first compound 0.253 µM
  relative viability: 0.525
NCI-H322M; first compound 0.8 µM
  relative viability: 0.479
NCI-H322M; first compound 8 µM
  relative viability: 0.481
